Measured values as given in PubChem BioAssay (NCI).
Several values for one entry are separate records, joined by “and”; a condition that tells them apart may be missing. Equal values may be shown once.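 Five concentrations, 48 hours, 96-well plates. At the GI50, growth is halved. TGI marks complete inhibition of growth.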

Experiments:
Assay in all cases: inhibition of tumour cell growth, NCI panel, 48 h; in the data active means GI50 below about 0.43 µM; inactive means the rest
M14 melanoma = test system: M14 melanoma
MOLT-4 leukemia = test system: MOLT-4 leukemia
U251 CNS = test system: U251 CNS
DU-145 prostate = test system: DU-145 prostate
EKVX NSCLC = test system: EKVX NSCLC
OVCAR-5 ovarian = test system: OVCAR-5 ovarian
HOP-92 NSCLC = test system: HOP-92 NSCLC
SK-MEL-2 melanoma = test system: SK-MEL-2 melanoma
ACHN renal = test system: ACHN renal
MDA-MB-231 breast = test system: MDA-MB-231 breast
MCF7 breast = test system: MCF7 breast
CAKI-1 renal = test system: CAKI-1 renal
TK-10 renal = test system: TK-10 renal
SNB-75 CNS = test system: SNB-75 CNS
SK-MEL-5 melanoma = test system: SK-MEL-5 melanoma
786-0 renal = test system: 786-0 renal
UACC-62 melanoma = test system: UACC-62 melanoma
HOP-62 NSCLC = test system: HOP-62 NSCLC
MDA-N = test system: MDA-N
SF-268 CNS = test system: SF-268 CNS
SN12C renal = test system: SN12C renal
HCT-116 colon = test system: HCT-116 colon
OVCAR-4 ovarian = test system: OVCAR-4 ovarian
HT29 colon = test system: HT29 colon
A498 renal = test system: A498 renal
IGROV1 ovarian = test system: IGROV1 ovarian
PC-3 prostate = test system: PC-3 prostate
HS 578T breast = test system: HS 578T breast
KM12 colon = test system: KM12 colon
OVCAR-8 ovarian = test system: OVCAR-8 ovarian
HCT-15 colon = test system: HCT-15 colon
A549 NSCLC = test system: A549 NSCLC
SK-OV-3 ovarian = test system: SK-OV-3 ovarian
CCRF-CEM leukemia = test system: CCRF-CEM leukemia
K-562 leukemia = test system: K-562 leukemia
SW-620 colon = test system: SW-620 colon
SNB-19 CNS = test system: SNB-19 CNS
LOX IMVI melanoma = test system: LOX IMVI melanoma
RPMI-8226 leukemia = test system: RPMI-8226 leukemia
SK-MEL-28 melanoma = test system: SK-MEL-28 melanoma
MDA-MB-435 = test system: MDA-MB-435
HL-60(TB) leukemia = test system: HL-60(TB) leukemia
UACC-257 melanoma = test system: UACC-257 melanoma
COLO 205 colon = test system: COLO 205 colon
OVCAR-3 ovarian = test system: OVCAR-3 ovarian
NCI-H226 lung = test system: NCI-H226 lung
NCI-H522 lung = test system: NCI-H522 lung
SF-539 CNS = test system: SF-539 CNS
NCI-H23 lung = test system: NCI-H23 lung
HCC-2998 colon = test system: HCC-2998 colon
RXF 393 renal = test system: RXF 393 renal
MALME-3M melanoma = test system: MALME-3M melanoma
SF-295 CNS = test system: SF-295 CNS
SR leukemia = test system: SR leukemia
BT-549 breast = test system: BT-549 breast
UO-31 renal = test system: UO-31 renal
NCI-H460 lung = test system: NCI-H460 lung
NCI/ADR-RES ovarian = test system: NCI/ADR-RES ovarian
T-47D breast = test system: T-47D breast

N#Cc1nc(C(=O)c2ccccc2)oc1N
> 100 µM: TGI (M14 melanoma) | TGI (MOLT-4 leukemia) | TGI (U251 CNS) | TGI (DU-145 prostate) | TGI (EKVX NSCLC) | TGI (OVCAR-5 ovarian) | TGI (HOP-92 NSCLC) | TGI (SK-MEL-2 melanoma) | TGI (ACHN renal) | TGI (MDA-MB-231 breast) | TGI (MCF7 breast) | TGI (CAKI-1 renal) | TGI (TK-10 renal) | TGI (SK-MEL-5 melanoma) | TGI (786-0 renal) | TGI (UACC-62 melanoma) | TGI (HOP-62 NSCLC) | TGI (MDA-N) | TGI (SF-268 CNS) | TGI (SN12C renal) | TGI (HCT-116 colon) | TGI (OVCAR-4 ovarian) | TGI (HT29 colon) | TGI (A498 renal) | TGI (IGROV1 ovarian) | TGI (PC-3 prostate) | TGI (HS 578T breast) | TGI (KM12 colon) | TGI (OVCAR-8 ovarian) | TGI (HCT-15 colon) | TGI (A549 NSCLC) | TGI (SK-OV-3 ovarian) | TGI (CCRF-CEM leukemia) | TGI (K-562 leukemia) | TGI (SW-620 colon) | TGI (SNB-19 CNS) | TGI (LOX IMVI melanoma) | TGI (RPMI-8226 leukemia) | TGI (SK-MEL-28 melanoma) | TGI (MDA-MB-435) | TGI (HL-60(TB) leukemia) | TGI (UACC-257 melanoma)
8.45 µM: TGI (SNB-75 CNS)

Cc1cc(C)c(N)c(CO)c1
> 32.1 µM and 27.5 µM: TGI (CAKI-1 renal)
18.7 µM and > 38.5 µM: TGI (TK-10 renal)
inactive: GI50 (OVCAR-5 ovarian) 1.17 µM and 4.31 µM | GI50 (MCF7 breast) 7.28 µM and 16 µM | GI50 (NCI-H522 lung) > 100 µM and 42.5 µM | GI50 (TK-10 renal) 2.61 µM and 6.9 µM | GI50 (RXF 393 renal) > 100 µM and 32.3 µM | GI50 (HT29 colon) 12.5 µM and 38.2 µM | GI50 (IGROV1 ovarian) 4.25 µM and 10.2 µM
6.61 µM and 19 µM: TGI (OVCAR-5 ovarian)
33.3 µM and 46.9 µM: TGI (IGROV1 ovarian)
1.73 µM and 4.56 µM: TGI (NCI-H226 lung)
0.236 µM and 1.26 µM: GI50 (NCI-H226 lung)
active: GI50 (A498 renal) 0.0675 µM and 0.183 µM
0.231 µM and 0.409 µM: TGI (A498 renal)
> 90.2 µM: TGI (UACC-62 melanoma)
> 100 µM: TGI (M14 melanoma) | TGI (MOLT-4 leukemia) | TGI (COLO 205 colon) | TGI (U251 CNS) | TGI (DU-145 prostate) | TGI (EKVX NSCLC) | TGI (HOP-92 NSCLC) | TGI (SK-MEL-2 melanoma) | TGI (ACHN renal) | TGI (MDA-MB-231 breast) | TGI (OVCAR-3 ovarian) | TGI (MCF7 breast) | TGI (NCI-H522 lung) | TGI (SF-539 CNS) | TGI (SNB-75 CNS) | TGI (SK-MEL-5 melanoma) | TGI (NCI-H23 lung) | TGI (HCC-2998 colon) | TGI (786-0 renal) | TGI (RXF 393 renal) | TGI (HOP-62 NSCLC) | TGI (MDA-N) | TGI (SF-268 CNS) | TGI (SN12C renal) | TGI (HCT-116 colon) | TGI (OVCAR-4 ovarian) | TGI (HT29 colon) | TGI (MALME-3M melanoma) | TGI (PC-3 prostate) | TGI (HS 578T breast) | TGI (KM12 colon) | TGI (OVCAR-8 ovarian) | TGI (HCT-15 colon) | TGI (SF-295 CNS) | TGI (A549 NSCLC) | TGI (SR leukemia) | TGI (SK-OV-3 ovarian) | TGI (BT-549 breast) | TGI (CCRF-CEM leukemia) | TGI (K-562 leukemia) | TGI (SW-620 colon) | TGI (SNB-19 CNS) | TGI (LOX IMVI melanoma) | TGI (RPMI-8226 leukemia) | TGI (UO-31 renal) | TGI (SK-MEL-28 melanoma) | TGI (NCI-H460 lung) | TGI (MDA-MB-435) | TGI (NCI/ADR-RES ovarian) | TGI (UACC-257 melanoma)

c1ccc(-c2nn(-c3ccccc3)[n+](-c3ccccc3-c3ccccc3)n2)cc1
17.6 µM: TGI (MOLT-4 leukemia)
> 71.7 µM: TGI (DU-145 prostate)
8.63 µM: TGI (NCI-H23 lung)
6.18 µM: TGI (PC-3 prostate)
23.4 µM: TGI (SF-539 CNS)
15.5 µM: TGI (OVCAR-3 ovarian) | TGI (SN12C renal)
> 100 µM: TGI (OVCAR-5 ovarian) | TGI (ACHN renal) | TGI (NCI-H226 lung) | TGI (HCT-15 colon) | TGI (A549 NSCLC) | TGI (NCI/ADR-RES ovarian)
> 47.7 µM: TGI (SF-268 CNS)
16.3 µM: TGI (IGROV1 ovarian)
5.48 µM: TGI (HOP-92 NSCLC)
9.04 µM: TGI (A498 renal)
5.84 µM: TGI (RPMI-8226 leukemia)
0.878 µM: TGI (HL-60(TB) leukemia)
inactive: GI50 (M14 melanoma) 1.63 µM | GI50 (MOLT-4 leukemia) 1.8 µM | GI50 (U251 CNS) 0.533 µM | GI50 (DU-145 prostate) 3.11 µM | GI50 (T-47D breast) 0.974 µM | GI50 (EKVX NSCLC) 0.687 µM | GI50 (OVCAR-5 ovarian) 4.19 µM | GI50 (HOP-92 NSCLC) 0.775 µM | GI50 (SK-MEL-2 melanoma) 1.8 µM | GI50 (ACHN renal) 5.38 µM | GI50 (NCI-H226 lung) 2.83 µM | GI50 (MCF7 breast) 0.462 µM | GI50 (NCI-H522 lung) 0.478 µM | GI50 (CAKI-1 renal) 16.5 µM | GI50 (TK-10 renal) 4.35 µM | GI50 (SF-539 CNS) 2.03 µM | GI50 (SNB-75 CNS) 1.23 µM | GI50 (NCI-H23 lung) 0.683 µM | GI50 (HCC-2998 colon) 0.94 µM | GI50 (786-0 renal) 2.96 µM | GI50 (UACC-62 melanoma) 0.74 µM | GI50 (RXF 393 renal) 2.02 µM | GI50 (HOP-62 NSCLC) 2.1 µM | GI50 (SF-268 CNS) 1.71 µM | GI50 (SN12C renal) 1.82 µM | GI50 (HCT-116 colon) 0.699 µM | GI50 (HT29 colon) 0.673 µM | GI50 (A498 renal) 1.65 µM | GI50 (IGROV1 ovarian) 0.868 µM | GI50 (HS 578T breast) 1.88 µM | GI50 (KM12 colon) 0.532 µM | GI50 (OVCAR-8 ovarian) 0.757 µM | GI50 (HCT-15 colon) 21.5 µM | GI50 (SF-295 CNS) 1.94 µM | GI50 (A549 NSCLC) 1.07 µM | GI50 (SR leukemia) 1.22 µM | GI50 (SK-OV-3 ovarian) 1.29 µM | GI50 (BT-549 breast) 0.461 µM | GI50 (CCRF-CEM leukemia) 0.743 µM | GI50 (K-562 leukemia) 0.456 µM | GI50 (SW-620 colon) 1.4 µM | GI50 (SNB-19 CNS) 1.24 µM | GI50 (LOX IMVI melanoma) 1.02 µM | GI50 (UO-31 renal) 11.6 µM | GI50 (SK-MEL-28 melanoma) 2.3 µM | GI50 (NCI-H460 lung) 1.04 µM | GI50 (MDA-MB-435) 0.461 µM | GI50 (NCI/ADR-RES ovarian) > 78.7 µM
8.99 µM: TGI (SF-295 CNS)
24.5 µM: TGI (OVCAR-4 ovarian)
> 74.6 µM: TGI (EKVX NSCLC)
11 µM: TGI (KM12 colon)
61.8 µM: TGI (U251 CNS)
> 42.1 µM: TGI (T-47D breast)
16.6 µM: TGI (M14 melanoma)
active: GI50 (COLO 205 colon) 0.205 µM | GI50 (MDA-MB-231 breast) 0.235 µM | GI50 (OVCAR-3 ovarian) 0.416 µM | GI50 (SK-MEL-5 melanoma) 0.409 µM | GI50 (OVCAR-4 ovarian) 0.382 µM | GI50 (MALME-3M melanoma) 0.248 µM | GI50 (PC-3 prostate) 0.37 µM | GI50 (RPMI-8226 leukemia) 0.251 µM | GI50 (HL-60(TB) leukemia) 0.238 µM | GI50 (UACC-257 melanoma) 0.339 µM
> 29.1 µM: TGI (SK-OV-3 ovarian)
16.4 µM: TGI (RXF 393 renal)
18.4 µM: TGI (HT29 colon)
> 73.1 µM: TGI (SW-620 colon)
18.8 µM: TGI (LOX IMVI melanoma)
10.9 µM: TGI (SR leukemia)
> 42.2 µM: TGI (HOP-62 NSCLC)
> 80.7 µM: TGI (SNB-19 CNS)
> 33.3 µM: TGI (HCT-116 colon)
> 77.6 µM: TGI (UO-31 renal)
8.6 µM: TGI (NCI-H460 lung)
1.53 µM: TGI (MALME-3M melanoma)
15.3 µM: TGI (K-562 leukemia)
19.9 µM: TGI (SNB-75 CNS)
2.82 µM: TGI (MDA-MB-435)
2.72 µM: TGI (UACC-257 melanoma)
89.9 µM: TGI (CAKI-1 renal)
43.7 µM: TGI (CCRF-CEM leukemia)
21.5 µM: TGI (TK-10 renal)
31.5 µM: TGI (HS 578T breast)
17.3 µM: TGI (HCC-2998 colon)
2.2 µM: TGI (SK-MEL-5 melanoma)
9.21 µM: TGI (MDA-MB-231 breast)
8.18 µM: TGI (NCI-H522 lung)
14.9 µM: TGI (UACC-62 melanoma)
27.2 µM: TGI (SK-MEL-28 melanoma)
7.69 µM: TGI (SK-MEL-2 melanoma)
11.5 µM: TGI (MCF7 breast)
12.5 µM: TGI (OVCAR-8 ovarian)
21.2 µM: TGI (786-0 renal)
7.87 µM: TGI (BT-549 breast)
0.856 µM: TGI (COLO 205 colon)
